# Measurements from the supplement of paper PMC11208160.
# Test: recombinant UMI read abundance after kanamycin selection (control-corrected) (log10(CPM+1)); higher = more efficient recombination; extreme values may be limits of the assay; sequences stand for … in AGTGCAGAGAAAATCGGCCAGTTTTCTCTGCCTGCAGTCCGCATGCCGTGGGACCCCTTGGGTTCTAACCTGTTGCCTAGATTTATGCAGCGGACTGCCTTTCTCCCAAAGTGATAAACCGG…AGGTTGGTTTCACT; site = the 11-nt donor
# Procedure: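 Pooled E. coli donor-specificity screen for the IS621 bridge recombinase. Each library member carries a reprogrammed 11-nt donor and a full-length LE bridge RNA expressed in cis from the natural promoter, with a paired donor-binding loop (8-nt LDG + 4-nt RDG) and a target-binding loop fixed to T5. It is co-electroporated with a T5 target plasmid; recombinase is induced with 0.07 mM IPTG and recombinants are selected on kanamycin. UMIs are counted as CPM, averaged over two biological replicates and corrected by the unselected control. Molecule = full bridge RNA written as DNA, built from the T5 scaffold: LDG = donor specificity nt 1-8, RDG = reverse complement of nt 8-11.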
# 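Note: IS621 bridge recombinase in Escherichia coli cells against a fixed T5 target plasmid.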
row,Sequence,recombinant UMI read abundance (log10)
1,AAAAGGCCATGGACCGGTTTTCCCGGTAATCCGTATTTGAC (site AAAAGGCCTGT),1.38
2,AAAAGGCCATGGACCGGTTTTCCCGGTAATCCGTATTTGAC (site ACAAGGCCTGT),0
3,AAAAGGCCATGGACCGGTTTTCCCGGTAATCCGTATTTGAC (site AGAAGGCCTGT),0
4,AAAAGGCCATGGACCGGTTTTCCCGGTAATCCGTATTTGAC (site ATAAGGCCTGT),0
5,AAAAGTACATGGACCGGTTTTCCCGGTAATCCGTATTTGAT (site AAAAGTACTAT),1.62
6,AAAATACCATGGACCGGTTTTCCCGGTAATCCGTATTTGAC (site AAAATACCTGT),0
7,AAACAGACATGGACCGGTTTTCCCGGTAATCCGTATTTGAC (site AAACAGACTGT),2.57
8,AAACAGTCATGGACCGGTTTTCCCGGTAATCCGTATTTGCT (site AAACAGTCTAG),2.98
9,AAACATGCATGGACCGGTTTTCCCGGTAATCCGTATTTGAA (site AAACATGCTTT),2.15
10,AAACGCACATGGACCGGTTTTCCCGGTAATCCGTATTTGTG (site AAACGCACTCA),0.245
11,AAACGGACATGGACCGGTTTTCCCGGTAATCCGTATTTGTA (site AAACGGACTTA),1.84
12,AAACTAACATGGACCGGTTTTCCCGGTAATCCGTATTTGCA (site AAACTAACTTG),2.27
13,AAACTAACATGGACCGGTTTTCCCGGTAATCCGTATTTGCG (site AAACTAACTCG),2.09
14,AAAGAATCATGGACCGGTTTTCCCGGTAATCCGTATTTGCA (site AAAGAATCTTG),2.66
15,AAAGAATCATGGACCGGTTTTCCCGGTAATCCGTATTTGCA (site ACAGTATCTTG),0.902
16,AAAGATACATGGACCGGTTTTCCCGGTAATCCGTATTTGTT (site AAAGATACTAA),2.21
17,AAAGATTCATGGACCGGTTTTCCCGGTAATCCGTATTTGTT (site AAAGATTCTAA),2.82
18,AAAGATTCATGGACCGGTTTTCCCGGTAATCCGTATTTGTT (site CAAGATTCTAA),2.12
19,AAAGATTCATGGACCGGTTTTCCCGGTAATCCGTATTTGTT (site GAAGATTCTAA),0.233
20,AAAGATTCATGGACCGGTTTTCCCGGTAATCCGTATTTGTT (site TAAGATTCTAA),2.48
21,AAAGTATCATGGACCGGTTTTCCCGGTAATCCGTATTTGGA (site AAAGTATCTTC),2.45
22,AAAGTATCATGGACCGGTTTTCCCGGTAATCCGTATTTGGA (site ACAGTATCTTG),0
23,AAATAGGCATGGACCGGTTTTCCCGGTAATCCGTATTTGCC (site AAATAGGCTGG),1.07
24,AAATATACATGGACCGGTTTTCCCGGTAATCCGTATTTGAC (site AAATATACTGT),2.52

row,Sequence,recombinant UMI read abundance (log10)
1,AACAACCCATGGACCGGTTTTCCCGGTAATCCGTATTTGAA (site AACAACCCTTT),0.192
2,AACAAGTCATGGACCGGTTTTCCCGGTAATCCGTATTTGAC (site AACAAGTCTGT),1.86
3,AACAATACATGGACCGGTTTTCCCGGTAATCCGTATTTGTC (site AACAATACTGA),1.64
4,AACAGTGCATGGACCGGTTTTCCCGGTAATCCGTATTTGTC (site AACAGTGCTGA),2.39
5,AACCATCCATGGACCGGTTTTCCCGGTAATCCGTATTTGAT (site AACCATCCTAT),0.499
6,AACCATCCATGGACCGGTTTTCCCGGTAATCCGTATTTGAT (site AACCCTCCTAT),0.0146
7,AACCATCCATGGACCGGTTTTCCCGGTAATCCGTATTTGAT (site AACCGTCCTAT),0.00892
8,AACCATCCATGGACCGGTTTTCCCGGTAATCCGTATTTGAT (site AACCTTCCTAT),0.431
9,AACCCCGCATGGACCGGTTTTCCCGGTAATCCGTATTTGAC (site AACCCCGCTGT),2.32
10,AACCGAGCATGGACCGGTTTTCCCGGTAATCCGTATTTGTT (site AACCGAGCTAA),0.146
11,AACCGTTCATGGACCGGTTTTCCCGGTAATCCGTATTTGAT (site AACCGTACTAT),0.00732
12,AACCGTTCATGGACCGGTTTTCCCGGTAATCCGTATTTGAT (site AACCGTCCTAT),0.012
13,AACCGTTCATGGACCGGTTTTCCCGGTAATCCGTATTTGAT (site AACCGTGCTAT),0.0146
14,AACCGTTCATGGACCGGTTTTCCCGGTAATCCGTATTTGAT (site AACCGTTCTAT),0.348
15,AACCTTTCATGGACCGGTTTTCCCGGTAATCCGTATTTGAC (site AACCTTTCTGT),0
16,AACCTTTCATGGACCGGTTTTCCCGGTAATCCGTATTTGAC (site ACCCTTTCTGT),0
17,AACCTTTCATGGACCGGTTTTCCCGGTAATCCGTATTTGAC (site AGCCTTTCTGT),0
18,AACCTTTCATGGACCGGTTTTCCCGGTAATCCGTATTTGAC (site ATCCTTTCTGT),0
19,AACGACCCATGGACCGGTTTTCCCGGTAATCCGTATTTGAG (site AACGACCCTCT),0.029
20,AACGATCCATGGACCGGTTTTCCCGGTAATCCGTATTTGTA (site AACGATCCTTA),1.42
21,AACGCCGCATGGACCGGTTTTCCCGGTAATCCGTATTTGAG (site AACGCCGCTCT),0.916
22,AACGGGACATGGACCGGTTTTCCCGGTAATCCGTATTTGAT (site AACGGGACTAT),2.44
23,AACTATTCATGGACCGGTTTTCCCGGTAATCCGTATTTGTA (site AACTATTCTTA),2.2
24,AACTCAGCATGGACCGGTTTTCCCGGTAATCCGTATTTGGG (site AACTCAGCTCC),0.0924

row,Sequence,recombinant UMI read abundance (log10)
1,AACTCAGCATGGACCGGTTTTCCCGGTAATCCGTATTTGGG (site ACCTCAGCTCC),0.0111
2,AACTCAGCATGGACCGGTTTTCCCGGTAATCCGTATTTGGG (site AGCTCAGCTCC),0.00784
3,AACTCAGCATGGACCGGTTTTCCCGGTAATCCGTATTTGGG (site ATCTCAGCTCC),0.192
4,AACTGCGCATGGACCGGTTTTCCCGGTAATCCGTATTTGAT (site AACTGCGCTAT),1.34
5,AACTGCGCATGGACCGGTTTTCCCGGTAATCCGTATTTGTG (site AACTGCGCTCA),0.435
6,AACTGTCCATGGACCGGTTTTCCCGGTAATCCGTATTTGTG (site AACTGTCCTCA),0.0176
7,AACTTGACATGGACCGGTTTTCCCGGTAATCCGTATTTGCT (site AACTTGACTAG),0.971
8,AACTTGACATGGACCGGTTTTCCCGGTAATCCGTATTTGCT (site CACTTGACTAG),1.12
9,AACTTGACATGGACCGGTTTTCCCGGTAATCCGTATTTGCT (site GACTTGACTAG),0.665
10,AACTTGACATGGACCGGTTTTCCCGGTAATCCGTATTTGCT (site TACTTGACTAG),1.24
11,AAGAAAACATGGACCGGTTTTCCCGGTAATCCGTATTTGGT (site AAGAAAACTAC),1.5
12,AAGAACCCATGGACCGGTTTTCCCGGTAATCCGTATTTGAA (site AAGAACCCTTT),1.5
13,AAGAAGACATGGACCGGTTTTCCCGGTAATCCGTATTTGCC (site AAGAAGACTGG),2.47
14,AAGAAGACATGGACCGGTTTTCCCGGTAATCCGTATTTGCC (site AGGAAGACTTG),0.0155
15,AAGAAGCCATGGACCGGTTTTCCCGGTAATCCGTATTTGAC (site AAGAAGCCTGT),0
16,AAGCACACATGGACCGGTTTTCCCGGTAATCCGTATTTGTT (site AAGCACACTAA),1.8
17,AAGCACGCATGGACCGGTTTTCCCGGTAATCCGTATTTGGA (site AAGCACGCTAC),0.0278
18,AAGCACGCATGGACCGGTTTTCCCGGTAATCCGTATTTGGA (site AAGCACGCTCC),0.0219
19,AAGCACGCATGGACCGGTTTTCCCGGTAATCCGTATTTGGA (site AAGCACGCTGC),0
20,AAGCACGCATGGACCGGTTTTCCCGGTAATCCGTATTTGGA (site AAGCACGCTTC),0.817
21,AAGCACGCATGGACCGGTTTTCCCGGTAATCCGTATTTGGG (site AAACACGCTCC),0.00685
22,AAGCACGCATGGACCGGTTTTCCCGGTAATCCGTATTTGGG (site AACCACGCTCC),0.0266
23,AAGCACGCATGGACCGGTTTTCCCGGTAATCCGTATTTGGG (site AAGAACGCTCC),0.0117
24,AAGCACGCATGGACCGGTTTTCCCGGTAATCCGTATTTGGG (site AAGCAAGCTCC),0.0142
